Results as given in PubChem BioAssay AID2060897 (Molecular Pharmacology Branch, DTP, NCI, 2025).

System: 966289-007-R4-J1-PDC complex spheroid viability
Experiment: Anticancer human tumor 966289-007-R4-J1-PDC patient-derived pancreatic adenocarcinoma cell line growth inhibition [RAS]
Details: for IC50: curve of first compound; for viability, T/C: stronger effect = lower value
How it was run: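 Multi-cell-type spheroids: tumor cells plus HUVEC endothelial cells and mesenchymal stem cells. RAS-pathway inhibitors were combined with targeted agents, each dosed in half-log steps down from clinical Cmax, or from 10 microM when Cmax was unknown.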

[1] = second compound 0.0316 µM, first compound 0.00316 µM
[2] = second compound 0.0316 µM, first compound 0.01 µM
[3] = second compound 0.0316 µM, first compound 0.0316 µM
[4] = second compound 0.0316 µM, first compound 0.1 µM
[5] = second compound 0.0316 µM, first compound 0.316 µM
[6] = second compound 0.0316 µM, first compound 1 µM
[7] = second compound 0.1 µM, first compound 0.00316 µM
[8] = second compound 0.1 µM, first compound 0.01 µM
[9] = second compound 0.1 µM, first compound 0.0316 µM
[10] = second compound 0.1 µM, first compound 0.1 µM
[11] = second compound 0.1 µM, first compound 0.316 µM
[12] = second compound 0.1 µM, first compound 1 µM
[13] = second compound 0.316 µM, first compound 0.00316 µM
[14] = second compound 0.316 µM, first compound 0.01 µM
[15] = second compound 0.316 µM, first compound 0.0316 µM
[16] = second compound 0.316 µM, first compound 0.1 µM
[17] = second compound 0.316 µM, first compound 0.316 µM
[18] = second compound 0.316 µM, first compound 1 µM
[19] = second compound 1 µM, first compound 0.00316 µM
[20] = second compound 1 µM, first compound 0.01 µM
[21] = second compound 1 µM, first compound 0.0316 µM
[22] = second compound 1 µM, first compound 0.1 µM
[23] = second compound 1 µM, first compound 0.316 µM
[24] = second compound 1 µM, first compound 1 µM
[25] = second compound 3.16 µM, first compound 0.00316 µM
[26] = second compound 3.16 µM, first compound 0.01 µM
[27] = second compound 3.16 µM, first compound 0.0316 µM
[28] = second compound 3.16 µM, first compound 0.1 µM
[29] = second compound 3.16 µM, first compound 0.316 µM
[30] = second compound 3.16 µM, first compound 1 µM
[31] = second compound 10 µM, first compound 0.00316 µM
[32] = second compound 10 µM, first compound 0.01 µM
[33] = second compound 10 µM, first compound 0.0316 µM
[34] = second compound 10 µM, first compound 0.1 µM
[35] = second compound 10 µM, first compound 0.316 µM
[36] = second compound 10 µM, first compound 1 µM
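Note: spheroids exposed to agents for one week before readout.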
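Throughout, for viability, T/C: percent viability relative to DMSO vehicle control wells as 100%.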

SMILES: CCC(CC)c1cc(NC2CCC(N)C2)n2nccc2n1 (stereo unspecified) + CCn1c(-c2cccnc2C(C)OC)c2c3cc(ccc31)N1CCOC(CC(NC(=O)C(C(C)C)N(C)C(=O)C3(F)CCN(C(=O)C#CC(C)(C)N(C)C)CC3)C(=O)N3CCCC(N3)C(=O)OCC(C)(C)C2)C1
- IC50 (second compound 0.000949 µM): 1500 nM
- IC50 (second compound 0.003 µM): 1420 nM
- IC50 (second compound 0.00949 µM): 1480 nM
- IC50 (second compound 0.03 µM): 1070 nM
- IC50 (second compound 0.0949 µM): 764 nM
- IC50 (second compound 0.3 µM): 595 nM
- viability, T/C (second compound 0.000949 µM, first compound 0.0316 µM): 113%
- viability, T/C (second compound 0.000949 µM, first compound 0.1 µM): 87%
- viability, T/C (second compound 0.000949 µM, first compound 0.316 µM): 115%
- viability, T/C (second compound 0.000949 µM, first compound 1 µM): 76.3%
- viability, T/C (second compound 0.000949 µM, first compound 3.16 µM): 1.1%
- viability, T/C (second compound 0.000949 µM, first compound 10 µM): 1.22%
- viability, T/C (second compound 0.003 µM, first compound 0.0316 µM): 99.7%
- viability, T/C (second compound 0.003 µM, first compound 0.1 µM): 82.4%
- viability, T/C (second compound 0.003 µM, first compound 0.316 µM): 66.7%
- viability, T/C (second compound 0.003 µM, first compound 1 µM): 71.3%
- viability, T/C (second compound 0.003 µM, first compound 3.16 µM): 1.2%
- viability, T/C (second compound 0.003 µM, first compound 10 µM): 0.93%
- viability, T/C (second compound 0.00949 µM, first compound 0.0316 µM): 82.1%
- viability, T/C (second compound 0.00949 µM, first compound 0.1 µM): 122%
- viability, T/C (second compound 0.00949 µM, first compound 0.316 µM): 96.5%
- viability, T/C (second compound 0.00949 µM, first compound 1 µM): 75.1%
- viability, T/C (second compound 0.00949 µM, first compound 3.16 µM): 1.25%
- viability, T/C (second compound 0.00949 µM, first compound 10 µM): 1.32%
- viability, T/C (second compound 0.03 µM, first compound 0.0316 µM): 66.9%
- viability, T/C (second compound 0.03 µM, first compound 0.1 µM): 72.1%
- viability, T/C (second compound 0.03 µM, first compound 0.316 µM): 123%
- viability, T/C (second compound 0.03 µM, first compound 1 µM): 52.9%
- viability, T/C (second compound 0.03 µM, first compound 3.16 µM): 1.48%
- viability, T/C (second compound 0.03 µM, first compound 10 µM): 1.83%
- viability, T/C (second compound 0.0949 µM, first compound 0.0316 µM): 64%
- viability, T/C (second compound 0.0949 µM, first compound 0.1 µM): 106%
- viability, T/C (second compound 0.0949 µM, first compound 0.316 µM): 132%
- viability, T/C (second compound 0.0949 µM, first compound 1 µM): 34.6%
- viability, T/C (second compound 0.0949 µM, first compound 3.16 µM): 0.98%
- viability, T/C (second compound 0.0949 µM, first compound 10 µM): 0.98%
- viability, T/C (second compound 0.3 µM, first compound 0.0316 µM): 93.5%
- viability, T/C (second compound 0.3 µM, first compound 0.1 µM): 94.5%
- viability, T/C (second compound 0.3 µM, first compound 0.316 µM): 98.5%
- viability, T/C (second compound 0.3 µM, first compound 1 µM): 12.7%
- viability, T/C (second compound 0.3 µM, first compound 3.16 µM): 1.23%
- viability, T/C (second compound 0.3 µM, first compound 10 µM): 1.13%

SMILES: CCN1CCN(Cc2ccc(Nc3ncc(F)c(-c4cc(F)c5nc(C)n(C(C)C)c5c4)n3)nc2)CC1 + C#Cc1c(F)ccc2cc(O)cc(-c3ncc4c(N5CC6CCC(C5)N6)nc(OCC56CCCN5CC(F)C6)nc4c3F)c12
- IC50 (second compound 0.0316 µM): > 1000 nM
- IC50 (second compound 0.1 µM): > 1000 nM
- IC50 (second compound 0.316 µM): > 1000 nM
- IC50 (second compound 1 µM): > 1000 nM
- IC50 (second compound 3.16 µM): > 1000 nM
- IC50 (second compound 10 µM): > 1000 nM
- viability, T/C [1]: 121%
- viability, T/C [2]: 102%
- viability, T/C [3]: 107%
- viability, T/C [4]: 92.8%
- viability, T/C [5]: 92.1%
- viability, T/C [6]: 71.8%
- viability, T/C [7]: 113%
- viability, T/C [8]: 108%
- viability, T/C [9]: 102%
- viability, T/C [10]: 82.7%
- viability, T/C [11]: 92.8%
- viability, T/C [12]: 71.1%
- viability, T/C [13]: 114%
- viability, T/C [14]: 112%
- viability, T/C [15]: 100%
- viability, T/C [16]: 95.9%
- viability, T/C [17]: 84.6%
- viability, T/C [18]: 69.9%
- viability, T/C [19]: 104%
- viability, T/C [20]: 103%
- viability, T/C [21]: 116%
- viability, T/C [22]: 103%
- viability, T/C [23]: 79.4%
- viability, T/C [24]: 81.7%
- viability, T/C [25]: 108%
- viability, T/C [26]: 109%
- viability, T/C [27]: 113%
- viability, T/C [28]: 93.3%
- viability, T/C [29]: 88.8%
- viability, T/C [30]: 77%
- viability, T/C [31]: 108%
- viability, T/C [32]: 90.3%
- viability, T/C [33]: 121%
- viability, T/C [34]: 89.2%
- viability, T/C [35]: 93.4%
- viability, T/C [36]: 66%

SMILES: C=CC(=O)Nc1cc(Nc2nccc(-c3cn(C)c4ccccc34)n2)c(OC)cc1N(C)CCN(C)C + C#Cc1c(F)ccc2cc(O)cc(-c3ncc4c(N5CC6CCC(C5)N6)nc(OCC56CCCN5CC(F)C6)nc4c3F)c12
- IC50 (second compound 0.0316 µM): > 1000 nM
- IC50 (second compound 0.1 µM): > 1000 nM
- IC50 (second compound 0.316 µM): > 1000 nM
- IC50 (second compound 1 µM): > 1000 nM
- IC50 (second compound 3.16 µM): > 1000 nM
- IC50 (second compound 10 µM): > 1000 nM
- viability, T/C [1]: 107%
- viability, T/C [2]: 96%
- viability, T/C [3]: 101%
- viability, T/C [4]: 96.3%
- viability, T/C [5]: 94.2%
- viability, T/C [6]: 94%
- viability, T/C [7]: 94.8%
- viability, T/C [8]: 103%
- viability, T/C [9]: 99.8%
- viability, T/C [10]: 110%
- viability, T/C [11]: 90.4%
- viability, T/C [12]: 88.8%
- viability, T/C [13]: 108%
- viability, T/C [14]: 92.6%
- viability, T/C [15]: 114%
- viability, T/C [16]: 105%
- viability, T/C [17]: 105%
- viability, T/C [18]: 87.2%
- viability, T/C [19]: 102%
- viability, T/C [20]: 93.1%
- viability, T/C [21]: 97%
- viability, T/C [22]: 106%
- viability, T/C [23]: 97.9%
- viability, T/C [24]: 82.8%
- viability, T/C [25]: 108%
- viability, T/C [26]: 107%
- viability, T/C [27]: 129%
- viability, T/C [28]: 101%
- viability, T/C [29]: 114%
- viability, T/C [30]: 106%
- viability, T/C [31]: 97.5%
- viability, T/C [32]: 109%
- viability, T/C [33]: 108%
- viability, T/C [34]: 118%
- viability, T/C [35]: 91.3%
- viability, T/C [36]: 115%
